Source: patent publication US20100166851A1, “Composition having lipolytic activity, production method thereof and use of the composition” (NUTRACEUTIC ET BUSINESS CONSULTING, priority 2007, published 2010)

Tested on: human adipocytes
Experiment: release of Not Esterified Fatty Acids (NEFA) by human adipocytes in suspension (ex-vivo lipolysis)
Assay type: cell-based
Conditions: for NEFA: human adipocytes, 2 hours at 37° C., n=3; for % of the control: NEFA released, 2 hours
Description: This experiment has been conducted on human adipocytes isolated from an abdominal plasty of a donor. […] To 540 uL of a suspension of adipocytes in a test medium milieu have been added 60 μL of compound to be tested, and the mixtures have been incubated at 37° C., under stirring, for 2 hours. A final concentration of theophylline in the tested mixture of 1 mM was maintained, starting from a stock solution of 10^−2 M in test medium. Likewise, a final concentration of isoproterenol in the tested mixture of 1 μM was maintained, starting from a stock solution of […] in test medium. A final concentration of caffeine in the tested mixture of 0.5 mM was also maintained, starting from a stock solution of 5 mM in test medium. […] Since the composition according to the invention is a powder, it was diluted in DMSO, on the one hand, and in test medium, on the other hand. The stock solution prepared with DMSO was prepared at 10 mg/mL, i.e. 1% (w/v), for a final concentration of the composition according to the invention in solution in DMSO in the tested mixture of 0.01%. […] A control comprising only the adipocytes in test medium was also prepared. A total of 10 doses were prepared from 10 different fractions with the compound added or not. […] The dose was prepared conventionally by means of a NEFA-C measuring kit. The measured data were processed statistically. Intergroup comparisons were carried out through variance analysis (ANOVA) by means of the Dunnet multiple comparison test.

Cn1c(=O)c2c(ncn2C)n(C)c1=O [Caffeine, caffeine]
NEFA (0.5 mM): 339 µM
release of NEFA, factor with respect to the control (0.5 mM, p<0.01): about 9.5
% of the control (0.5 mM): 941%

CC(C)NCC(O)c1ccc(O)c(O)c1 (stereo not drawn) [Isoproterenol, isoproterenol]
NEFA (1.0 μM): 377 µM
lipolysis stimulation, factor with respect to the control (1 μM, p<0.01): 10
% of the control (1.0 μM): 1048%

Cn1c(=O)c2[nH]cnc2n(C)c1=O [Theophylline, theophylline]
NEFA (1.0 mM): 381 µM
lipolysis stimulation, factor with respect to the control (1 mM, p<0.01): 10
% of the control (1.0 mM): 1057%
